How the values were obtained:
Adenosine receptor A2a [1] = target: T1, Adenosine receptor A2a (Homo sapiens, UniProt P29274); test: Binding affinity to C-terminal 10xHis and 1D4-tagged C-terminal-truncated human A2A adenosine receptor (1 to 316 residues) expressed in Pichia pastoris expression system at 8 nM after 1 hr by fluorescence polarization assay; conditions: read-out: Kd(app)
Adenosine receptor A2a [2] = target: T1, Adenosine receptor A2a; test: Binding affinity to human A2A adenosine receptor expressed in HEK293 cells after 1 hr by fluorescence polarization assay; assay type: cell-based
Adenosine receptor A2a [3] = target: T1, Adenosine receptor A2a; test: Binding affinity to C-terminal 10xHis and 1D4-tagged C-terminal-truncated human A2A adenosine receptor (1 to 316 residues) expressed in Pichia pastoris expression system at 4 nM after 1 hr by fluorescence polarization assay; conditions: read-out: Kd(app)
Adenosine receptor A2a [4] = target: T1, Adenosine receptor A2a; test: Binding affinity to C-terminal 10xHis and 1D4-tagged C-terminal-truncated human A2A adenosine receptor (1 to 316 residues) expressed in Pichia pastoris expression system at 2 nM after 1 hr by fluorescence polarization assay; conditions: read-out: Kd(app)
Adenosine receptor A2a [5] = target: T1, Adenosine receptor A2a; test: Binding affinity to C-terminal 10xHis and 1D4-tagged C-terminal-truncated human A2A adenosine receptor (1 to 316 residues) expressed in Pichia pastoris expression system at 1 nM after 1 hr by fluorescence polarization assay; conditions: read-out: Kd(app)
Adenosine receptor A2a [6] = target: T1, Adenosine receptor A2a; test: Displacement of MRS5346 from C-terminal 10xHis and 1D4-tagged C-terminal-truncated human A2A adenosine receptor (1 to 316 residues) expressed in Pichia pastoris expression system after 1 hr by fluorescence polarization assay

T1 sequence (P29274 whole entry, the tested form may be a part): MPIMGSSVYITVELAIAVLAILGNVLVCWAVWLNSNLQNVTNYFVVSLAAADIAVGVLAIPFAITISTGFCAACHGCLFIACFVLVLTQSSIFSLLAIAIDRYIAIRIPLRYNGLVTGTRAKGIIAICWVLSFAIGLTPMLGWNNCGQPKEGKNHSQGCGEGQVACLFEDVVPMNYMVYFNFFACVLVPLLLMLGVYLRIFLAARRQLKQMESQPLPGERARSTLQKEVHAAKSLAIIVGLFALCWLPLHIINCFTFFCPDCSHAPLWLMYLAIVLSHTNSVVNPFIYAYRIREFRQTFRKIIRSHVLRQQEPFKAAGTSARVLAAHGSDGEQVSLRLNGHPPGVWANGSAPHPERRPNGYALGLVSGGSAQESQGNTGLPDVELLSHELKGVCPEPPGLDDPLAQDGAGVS

Compound	Kd (Adenosine receptor A2a [1]) [nM]	Kd (Adenosine receptor A2a [2]) [nM]	Kd (Adenosine receptor A2a [3]) [nM]	Kd (Adenosine receptor A2a [4]) [nM]	Kd (Adenosine receptor A2a [5]) [nM]	Ki (Adenosine receptor A2a [6]) [nM]
N=c1ccc2c(-c3ccc(C(=O)NCCNC(=O)COc4ccc(CCCn5ncc6c5nc(N)n5nc(-c7ccco7)nc65)cc4)cc3C(=O)O)c3ccc(N)c(S(=O)(=O)O)c3oc-2c1S(=O)(=O)O	49.5	16.5	42.4	30.8	29	
Nc1nc2nn(Cc3ccc(C4(C(F)(F)F)N=N4)cc3)cc2c2nc(-c3ccco3)nn12						39.7
Nc1nc2c(cnn2Cc2ccc(C3(C(F)(F)F)N=N3)cc2)c2nc(-c3ccco3)nn12						1520
